Assay results reported in publication PMC8924359, “ZDQ-0620, a Novel Phosphatidylinositol 3-Kinase Inhibitor, Inhibits Colorectal Carcinoma Cell Proliferation and Suppresses Angiogenesis by Attenuating PI3K/AKT/mTOR Pathway” (Frontiers in Oncology, 2022).

How the values were obtained:
Type in all cases: biochemical
[1] = biological target: T1, PI3Kγ (Homo sapiens, UniProt P48736); assay: ADP-Glo lipid kinase assay
T1 construct: gene PIK3CG
Source text: ADP-Glo lipid kinase assay on PI3Kγ | IC50 of ZDQ-0620 against PI3K kinase in vitro.

[2] = biological target: T2, PI3Kβ (Homo sapiens, UniProt P42338); assay: ADP-Glo lipid kinase assay; supported by CETSA in HCT116 cells (weaker than PI3Kα)
T2 construct: gene PIK3CB
T2 sequence (P42338 whole entry): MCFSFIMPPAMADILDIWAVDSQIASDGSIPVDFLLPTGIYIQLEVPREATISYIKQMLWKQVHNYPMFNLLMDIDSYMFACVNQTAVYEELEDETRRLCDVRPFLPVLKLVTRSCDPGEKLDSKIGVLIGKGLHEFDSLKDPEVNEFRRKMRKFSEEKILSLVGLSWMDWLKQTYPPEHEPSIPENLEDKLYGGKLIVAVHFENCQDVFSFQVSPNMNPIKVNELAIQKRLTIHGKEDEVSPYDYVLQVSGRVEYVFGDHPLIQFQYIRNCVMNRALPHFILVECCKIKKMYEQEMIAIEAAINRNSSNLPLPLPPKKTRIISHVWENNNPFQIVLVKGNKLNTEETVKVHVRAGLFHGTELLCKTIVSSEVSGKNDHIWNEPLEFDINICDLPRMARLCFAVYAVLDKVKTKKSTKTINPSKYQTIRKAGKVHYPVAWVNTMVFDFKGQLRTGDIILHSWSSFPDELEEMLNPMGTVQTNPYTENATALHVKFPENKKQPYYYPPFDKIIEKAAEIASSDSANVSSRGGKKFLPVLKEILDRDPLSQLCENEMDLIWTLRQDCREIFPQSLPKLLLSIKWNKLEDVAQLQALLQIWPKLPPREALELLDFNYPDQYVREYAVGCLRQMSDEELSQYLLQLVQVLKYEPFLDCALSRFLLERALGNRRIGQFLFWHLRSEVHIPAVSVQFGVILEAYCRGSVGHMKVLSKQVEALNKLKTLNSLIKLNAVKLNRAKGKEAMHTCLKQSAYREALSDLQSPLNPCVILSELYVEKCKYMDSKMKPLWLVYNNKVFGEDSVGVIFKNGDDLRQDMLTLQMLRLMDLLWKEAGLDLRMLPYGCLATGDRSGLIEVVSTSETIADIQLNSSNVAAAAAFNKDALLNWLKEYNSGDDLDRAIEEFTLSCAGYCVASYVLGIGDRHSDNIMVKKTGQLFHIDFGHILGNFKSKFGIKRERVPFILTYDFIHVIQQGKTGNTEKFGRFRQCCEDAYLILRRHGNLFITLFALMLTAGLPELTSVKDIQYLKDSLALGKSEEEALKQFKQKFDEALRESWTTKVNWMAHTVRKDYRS
Source text: ADP-Glo lipid kinase assay; supported by CETSA in HCT116 cells (weaker than PI3Kα) on PI3Kβ | IC50 of ZDQ-0620 against PI3K kinase in vitro.

[3] = biological target: T3, PI3Kδ (Homo sapiens, UniProt O00329); assay: ADP-Glo lipid kinase assay
T3 construct: gene PIK3CD
T3 sequence (O00329 1-1044): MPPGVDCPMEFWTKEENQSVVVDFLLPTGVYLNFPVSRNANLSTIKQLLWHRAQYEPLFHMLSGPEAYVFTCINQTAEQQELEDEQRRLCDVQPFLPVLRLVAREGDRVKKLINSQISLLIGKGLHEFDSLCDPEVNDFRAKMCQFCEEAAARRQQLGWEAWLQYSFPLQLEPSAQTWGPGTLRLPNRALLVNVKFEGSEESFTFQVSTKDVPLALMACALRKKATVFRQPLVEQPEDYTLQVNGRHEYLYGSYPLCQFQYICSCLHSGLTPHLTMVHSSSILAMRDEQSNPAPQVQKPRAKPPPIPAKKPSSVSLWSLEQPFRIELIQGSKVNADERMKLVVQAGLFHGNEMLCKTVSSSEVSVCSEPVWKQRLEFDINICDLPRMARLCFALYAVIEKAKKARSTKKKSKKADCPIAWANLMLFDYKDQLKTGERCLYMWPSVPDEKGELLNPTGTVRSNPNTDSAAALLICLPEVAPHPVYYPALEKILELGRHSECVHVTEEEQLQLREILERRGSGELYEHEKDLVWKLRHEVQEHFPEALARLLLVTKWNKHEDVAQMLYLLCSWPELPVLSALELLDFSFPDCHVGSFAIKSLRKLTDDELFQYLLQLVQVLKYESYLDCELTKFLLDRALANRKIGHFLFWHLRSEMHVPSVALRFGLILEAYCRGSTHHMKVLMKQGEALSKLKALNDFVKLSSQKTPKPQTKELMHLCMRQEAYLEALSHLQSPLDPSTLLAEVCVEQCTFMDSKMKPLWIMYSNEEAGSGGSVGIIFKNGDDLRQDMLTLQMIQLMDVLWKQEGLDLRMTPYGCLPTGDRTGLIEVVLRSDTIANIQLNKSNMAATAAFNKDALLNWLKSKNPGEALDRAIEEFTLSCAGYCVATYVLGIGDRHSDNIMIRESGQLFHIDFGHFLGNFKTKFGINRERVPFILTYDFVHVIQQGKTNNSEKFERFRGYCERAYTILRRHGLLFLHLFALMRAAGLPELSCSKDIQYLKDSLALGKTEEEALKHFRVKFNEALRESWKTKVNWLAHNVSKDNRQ
Source text: ADP-Glo lipid kinase assay on PI3Kδ | IC50 of ZDQ-0620 against PI3K kinase in vitro.

[4] = biological target: T4, PI3Kα (Homo sapiens, UniProt P42336); assay: ADP-Glo lipid kinase assay; supported by CETSA/ITDRF-CETSA in HCT116 cells
T4 construct: gene PIK3CA
T4 sequence (P42336 whole entry): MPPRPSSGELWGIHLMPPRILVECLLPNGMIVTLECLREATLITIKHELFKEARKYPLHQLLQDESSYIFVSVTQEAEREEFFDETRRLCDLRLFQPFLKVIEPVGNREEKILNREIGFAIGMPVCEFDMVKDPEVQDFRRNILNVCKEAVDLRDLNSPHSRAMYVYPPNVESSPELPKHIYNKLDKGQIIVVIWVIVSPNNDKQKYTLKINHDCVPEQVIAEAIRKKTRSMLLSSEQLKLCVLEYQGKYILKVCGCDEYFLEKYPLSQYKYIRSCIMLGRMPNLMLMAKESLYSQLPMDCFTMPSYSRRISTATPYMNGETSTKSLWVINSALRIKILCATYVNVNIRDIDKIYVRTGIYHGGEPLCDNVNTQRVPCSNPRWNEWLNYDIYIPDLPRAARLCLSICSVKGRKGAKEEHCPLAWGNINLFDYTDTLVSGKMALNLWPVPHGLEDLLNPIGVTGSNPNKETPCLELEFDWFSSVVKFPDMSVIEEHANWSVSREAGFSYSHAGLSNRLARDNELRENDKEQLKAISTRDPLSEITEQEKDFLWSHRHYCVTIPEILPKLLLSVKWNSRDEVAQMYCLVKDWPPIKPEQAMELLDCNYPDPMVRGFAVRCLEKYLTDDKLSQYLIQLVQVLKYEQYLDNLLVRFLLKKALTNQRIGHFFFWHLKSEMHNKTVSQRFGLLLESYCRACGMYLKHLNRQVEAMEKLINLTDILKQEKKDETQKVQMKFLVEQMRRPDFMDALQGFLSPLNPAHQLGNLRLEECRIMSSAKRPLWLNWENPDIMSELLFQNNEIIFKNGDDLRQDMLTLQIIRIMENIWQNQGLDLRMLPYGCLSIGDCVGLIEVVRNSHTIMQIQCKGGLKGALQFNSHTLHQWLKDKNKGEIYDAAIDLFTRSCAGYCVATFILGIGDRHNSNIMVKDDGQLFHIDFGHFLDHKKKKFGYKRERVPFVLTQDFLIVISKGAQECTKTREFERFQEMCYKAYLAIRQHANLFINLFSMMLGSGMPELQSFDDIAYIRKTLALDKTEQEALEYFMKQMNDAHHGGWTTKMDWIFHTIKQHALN

T1 sequence (P48736 whole entry): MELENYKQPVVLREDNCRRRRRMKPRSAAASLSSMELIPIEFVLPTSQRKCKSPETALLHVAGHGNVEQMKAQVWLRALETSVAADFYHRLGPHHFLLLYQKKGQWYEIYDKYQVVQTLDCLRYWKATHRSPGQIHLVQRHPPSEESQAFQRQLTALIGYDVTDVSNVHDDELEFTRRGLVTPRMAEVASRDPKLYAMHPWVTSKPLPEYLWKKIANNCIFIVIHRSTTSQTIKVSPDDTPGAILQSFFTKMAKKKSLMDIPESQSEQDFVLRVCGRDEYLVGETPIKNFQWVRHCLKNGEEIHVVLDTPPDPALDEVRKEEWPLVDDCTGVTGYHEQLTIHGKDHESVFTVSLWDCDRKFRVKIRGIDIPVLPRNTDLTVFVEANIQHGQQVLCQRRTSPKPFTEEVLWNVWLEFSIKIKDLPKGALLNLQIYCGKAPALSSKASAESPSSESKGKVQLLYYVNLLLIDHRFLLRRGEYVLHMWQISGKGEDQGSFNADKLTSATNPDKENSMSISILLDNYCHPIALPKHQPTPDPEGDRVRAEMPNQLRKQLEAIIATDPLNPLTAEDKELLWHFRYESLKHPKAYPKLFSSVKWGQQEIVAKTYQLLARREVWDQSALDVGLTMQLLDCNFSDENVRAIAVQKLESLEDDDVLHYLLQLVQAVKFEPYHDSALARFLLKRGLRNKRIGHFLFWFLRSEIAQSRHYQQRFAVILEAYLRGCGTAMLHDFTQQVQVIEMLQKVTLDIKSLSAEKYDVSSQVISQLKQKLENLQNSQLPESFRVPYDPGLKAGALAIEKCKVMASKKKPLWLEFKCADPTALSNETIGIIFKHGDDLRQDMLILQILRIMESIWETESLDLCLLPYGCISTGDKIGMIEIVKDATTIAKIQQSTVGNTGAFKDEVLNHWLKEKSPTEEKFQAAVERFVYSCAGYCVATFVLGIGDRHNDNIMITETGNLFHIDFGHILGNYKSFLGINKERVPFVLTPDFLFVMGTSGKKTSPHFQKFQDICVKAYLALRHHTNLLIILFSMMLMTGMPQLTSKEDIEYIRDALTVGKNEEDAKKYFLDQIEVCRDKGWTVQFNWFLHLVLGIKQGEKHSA

- IC50 [1]: 55 nM
- IC50 [2]: 93 nM
- IC50 [3]: 152 nM
- IC50 [4]: 0.5 nM
SMILES: COc1ncc(-c2ccc3c(c2)N(CCCN2CCOCC2)C(=O)CO3)cc1NS(=O)(=O)c1ccc(F)cc1F [ZDQ-0620, 2,4-difluoro-N-(2-methoxy-5-(4-(3-morpholinopropyl)-3-oxo-3,4-dihydro-2H-benzo[b][1,4]oxazin-6-yl)pyridin-3-yl)benzenesulfonamide]
